1 compound from patent publication US20260055365A1, “METHOD FOR SELECTIVE DIFFERENTIATION FROM PLURIPOTENT STEM CELLS TO HINDBRAIN TISSUE” (NEXT&BIO INC., priority 2022, published 2026) can be followed below.

Each structure is given as a SMILES string.

In the assay the test system is embryoid bodies formed from pluripotent stem cells. In words: Selective differentiation of embryoid bodies into hindbrain tissue (region-specific gene expression). Format: cell-based. The note with it: cultured 7 days. On the procedure: When the density of pluripotent stem cells reached approximately 80%, residues on the cell surface were washed using D-PBS and separated into each cell. Furthermore, the cells were diluted to contain approximately 100,000 cells per 10 ml of the embryoid body formation medium, and approximately 100 μl of the medium containing the cells was injected into each well of an Ultra-Low-attachment U bottom 96 well plate (Corning, 7007). Then, the cells were added in an incubator under a CO2 atmosphere at 37° C. and cultured for about 24 hours to form embryoid bodies. After the embryoid bodies were formed as described above, after about one day, it was confirmed whether one spherical embryoid body with a clean surface was formed well in each well. A hindbrain tissue induction medium containing IWP-2 as an endogenous WNT secretion inhibitor at a concentration of 1 μM and CHIR99021 as a WNT signaling agonist at concentrations of 1 μM, 2 μM, 3 μM, and 5 μM was prepared, and then about 100 μl of the hindbrain tissue induction medium was added to each well containing the embryoid body. About 100 μl of the existing medium was removed once every two days, about 100 μl of the hindbrain tissue induction medium was added, and the embryoid bodies were cultured for 7 days to confirm whether selective differentiation of the embryoid bodies into hindbrain tissue was performed well.

Consider `Cc1c[nH]c(-c2cnc(NCCNc3ccc(C#N)cn3)nc2-c2ccc(Cl)cc2Cl)n1` [CHIR99021], for which the “expression intensities of hindbrain region-specific genes versus other brain region-specific genes” value (hindbrain tissue induction medium with CHIR99021 2 μM to 3 μM plus IWP-2 1 μM) is reported as “much stronger than those of other brain region-specific genes”. Further, the “expression of forebrain region-specific genes versus other brain regions” value (hindbrain tissue induction medium with CHIR99021 approximately 1 μM plus IWP-2 1 μM) is “stronger than that of other brain regions”. For the same compound, the “expression of spinal cord region-specific genes versus other brain regions” value (hindbrain tissue induction medium with CHIR99021 approximately 5 μM plus IWP-2 1 μM) is reported as “stronger than that of other brain regions”. The “expression of hindbrain region-specific genes” value (hindbrain tissue induction medium with CHIR99021 more than 1 μM and less than 5 μM plus IWP-2 1 μM, FIGS. 2 to 4) is listed as “strongly induced”.
